Counter-ions that a name gives are not always drawn.
Columns and labels:
[1] = biological target: PI3Kδ (p110δ/p85α) Recombinant Human Protein (Homo sapiens (Human), UniProt O00329); experiment: PI3Kδ scintillation proximity assay; assay type: biochemical; details: 20 μM PIP2, 2 μM ATP, 3.4 nM PI3Kδ, 120 min, room temperature; read-out: PI3Kδ IC50
Procedure: PI3Kδ Scintillation Proximity Assay
[γ-^33P]ATP (10 mCi/mL) and Wheat Germ Agglutinin (WGA) YSi SPA Scintillation Beads was purchased from PerkinElmer (Waltham, Mass.). […] PI3Kδ (p110δ/p85α) Recombinant Human Protein was purchased from Eurofins (St Charles, Mo.). ATP, MgCl2, DTT, EDTA, MOPS and CHAPS were purchased from SigmaAldrich (St. Louis, Mo.).
The kinase reaction was conducted in polystyrene 384-well Greiner Bio-one white plate from Thermo Fisher Scientific in a final volume of 25 μL. Inhibitors were first diluted serially in DMSO and added to the plate wells before the addition of other reaction components. The final concentration of DMSO in the assay was 2%. The PI3Kδ assay was carried out at room temperature in 20 mM MOPS, pH 6.7, 10 mM MgCl2, 5 mM DTT and CHAPS 0.03%. Reactions were initiated by the addition of ATP, the final reaction mixture consisted of 20 μM PIP2, 2 μM ATP, 0.5 μCi [γ-^33P] […] The final concentration of SPA beads is 1.0 mg/mL. After the plate sealing, plates were shaken overnight at room temperature and centrifuged at 1500 rpm for 10 min, the radioactivity of the product was determined by scintillation counting on Topcount (PerkinElmer). IC50 determination was performed by fitting the curve of percent of the solvent control activity versus the log of the inhibitor concentration using the GraphPad Prism 6.0 software.

[2] = biological target: PI3Kγ (p110γ) Recombinant Human Protein (Homo sapiens (Human), UniProt P48736); experiment: PI3K-γ scintillation proximity assay; assay type: biochemical; details: 20 μM PIP2, 2 μM ATP, 13 nM PI3Kγ, 120 min, room temperature
Description: Example B. PI3K-γ Scintillation Proximity Assay
[γ-^33P]ATP (10 mCi/mL) and Wheat Germ Agglutinin (WGA) YSi SPA Scintillation Beads was purchased from PerkinElmer (Waltham, Mass.). Lipid kinase substrate, D-myo-Phosphatidylinositol 4,5-bisphosphate (PtdIns(4,5)P2)D (+)-sn-1,2-di-O-octanoylglyceryl, 3-O-phospho linked (PIP2), CAS 204858-53-7, was purchased from Echelon Biosciences (Salt Lake City, Utah). PI3Kγ (p110γ) Recombinant Human Protein was purchased from Life technology (Grand Island, N.Y.). ATP, MgCl2, DTT, EDTA, MOPS and CHAPS were purchased from SigmaAldrich (St. Louis, Mo.).
The kinase reaction was conducted in polystyrene 384-well Greiner Bio-one white plate from Thermo Fisher Scientific in a final volume of 25 μL. Inhibitors were first diluted serially in DMSO and added to the plate wells before the addition of other reaction components. The final concentration of DMSO in the assay was 2%. The PI3Kγ assay was carried out at room temperature in 20 mM MOPS, pH 6.7, 10 mM MgCl2, 5 mM DTT and CHAPS 0.03%. Reactions were initiated by the addition of ATP, the final reaction mixture consisted of 20 μM PIP2, 2 μM ATP, 0.5 μCi [γ-^33P] ATP, 13 nM PI3Kγ. Reactions were incubated for 120 min and terminated by the addition of 40 μL SPA beads suspended in quench buffer: 163 mM potassium phosphate pH 7.8, 20% glycerol, 25 mM EDTA. The final concentration of SPA beads is 1.0 mg/mL. After the plate sealing, plates were shaken overnight at room temperature and centrifuged at 1500 rpm for 10 min, the radioactivity of the product was determined by scintillation counting on Topcount (Perkin-Elmer). IC50 determination was performed by fitting the curve of percent of the solvent control activity versus the log of the inhibitor concentration using the GraphPad Prism 6.0 software.

Sequence of PI3Kδ (p110δ/p85α) Recombinant Human Protein (O00329 whole entry): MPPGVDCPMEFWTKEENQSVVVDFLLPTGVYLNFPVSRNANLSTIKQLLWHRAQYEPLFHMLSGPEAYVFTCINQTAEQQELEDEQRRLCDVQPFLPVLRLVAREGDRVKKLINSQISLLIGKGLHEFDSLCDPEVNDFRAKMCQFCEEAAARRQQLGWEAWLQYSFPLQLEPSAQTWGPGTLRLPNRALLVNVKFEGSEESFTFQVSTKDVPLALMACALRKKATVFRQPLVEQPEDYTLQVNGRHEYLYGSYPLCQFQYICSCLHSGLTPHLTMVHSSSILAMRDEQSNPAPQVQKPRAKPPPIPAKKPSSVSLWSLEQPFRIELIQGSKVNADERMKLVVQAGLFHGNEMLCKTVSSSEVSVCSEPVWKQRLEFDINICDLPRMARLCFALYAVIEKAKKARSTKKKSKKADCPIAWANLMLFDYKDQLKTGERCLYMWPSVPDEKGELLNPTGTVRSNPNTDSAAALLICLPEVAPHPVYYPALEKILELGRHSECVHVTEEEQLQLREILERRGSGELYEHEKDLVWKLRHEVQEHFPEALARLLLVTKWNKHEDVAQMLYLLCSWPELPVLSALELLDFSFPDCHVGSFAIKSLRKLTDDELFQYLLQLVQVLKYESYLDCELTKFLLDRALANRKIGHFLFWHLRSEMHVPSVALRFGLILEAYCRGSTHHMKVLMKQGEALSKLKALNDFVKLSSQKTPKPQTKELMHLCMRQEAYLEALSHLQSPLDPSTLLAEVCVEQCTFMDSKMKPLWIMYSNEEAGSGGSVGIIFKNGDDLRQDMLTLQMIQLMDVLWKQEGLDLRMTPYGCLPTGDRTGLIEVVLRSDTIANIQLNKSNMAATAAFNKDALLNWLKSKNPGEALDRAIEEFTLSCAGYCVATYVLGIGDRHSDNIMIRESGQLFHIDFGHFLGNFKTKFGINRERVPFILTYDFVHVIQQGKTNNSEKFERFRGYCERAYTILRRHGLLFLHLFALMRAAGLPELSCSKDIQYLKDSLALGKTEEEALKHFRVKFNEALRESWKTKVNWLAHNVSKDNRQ
Sequence of PI3Kδ (p110δ/p85α) Recombinant Human Protein (P27986 whole entry partner): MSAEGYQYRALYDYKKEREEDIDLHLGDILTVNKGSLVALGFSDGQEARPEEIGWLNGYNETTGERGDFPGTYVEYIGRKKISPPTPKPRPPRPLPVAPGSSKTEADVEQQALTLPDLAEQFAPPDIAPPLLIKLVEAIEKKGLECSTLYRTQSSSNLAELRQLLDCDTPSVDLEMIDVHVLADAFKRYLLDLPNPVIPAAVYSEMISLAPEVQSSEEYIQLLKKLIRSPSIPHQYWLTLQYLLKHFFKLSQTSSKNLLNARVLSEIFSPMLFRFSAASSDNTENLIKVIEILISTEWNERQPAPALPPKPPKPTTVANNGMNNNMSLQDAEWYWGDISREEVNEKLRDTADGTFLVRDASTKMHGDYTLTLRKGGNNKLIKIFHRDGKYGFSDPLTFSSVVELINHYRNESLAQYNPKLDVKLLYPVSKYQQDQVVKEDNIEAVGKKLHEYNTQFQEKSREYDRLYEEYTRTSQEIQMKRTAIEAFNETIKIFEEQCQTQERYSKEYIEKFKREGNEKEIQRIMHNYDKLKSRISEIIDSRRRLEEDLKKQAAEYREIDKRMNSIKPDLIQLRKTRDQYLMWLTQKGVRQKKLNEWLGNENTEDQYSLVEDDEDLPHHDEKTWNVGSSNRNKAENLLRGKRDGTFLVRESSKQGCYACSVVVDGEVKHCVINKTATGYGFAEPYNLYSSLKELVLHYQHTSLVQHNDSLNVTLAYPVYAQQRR
Sequence of PI3Kγ (p110γ) Recombinant Human Protein (P48736 whole entry): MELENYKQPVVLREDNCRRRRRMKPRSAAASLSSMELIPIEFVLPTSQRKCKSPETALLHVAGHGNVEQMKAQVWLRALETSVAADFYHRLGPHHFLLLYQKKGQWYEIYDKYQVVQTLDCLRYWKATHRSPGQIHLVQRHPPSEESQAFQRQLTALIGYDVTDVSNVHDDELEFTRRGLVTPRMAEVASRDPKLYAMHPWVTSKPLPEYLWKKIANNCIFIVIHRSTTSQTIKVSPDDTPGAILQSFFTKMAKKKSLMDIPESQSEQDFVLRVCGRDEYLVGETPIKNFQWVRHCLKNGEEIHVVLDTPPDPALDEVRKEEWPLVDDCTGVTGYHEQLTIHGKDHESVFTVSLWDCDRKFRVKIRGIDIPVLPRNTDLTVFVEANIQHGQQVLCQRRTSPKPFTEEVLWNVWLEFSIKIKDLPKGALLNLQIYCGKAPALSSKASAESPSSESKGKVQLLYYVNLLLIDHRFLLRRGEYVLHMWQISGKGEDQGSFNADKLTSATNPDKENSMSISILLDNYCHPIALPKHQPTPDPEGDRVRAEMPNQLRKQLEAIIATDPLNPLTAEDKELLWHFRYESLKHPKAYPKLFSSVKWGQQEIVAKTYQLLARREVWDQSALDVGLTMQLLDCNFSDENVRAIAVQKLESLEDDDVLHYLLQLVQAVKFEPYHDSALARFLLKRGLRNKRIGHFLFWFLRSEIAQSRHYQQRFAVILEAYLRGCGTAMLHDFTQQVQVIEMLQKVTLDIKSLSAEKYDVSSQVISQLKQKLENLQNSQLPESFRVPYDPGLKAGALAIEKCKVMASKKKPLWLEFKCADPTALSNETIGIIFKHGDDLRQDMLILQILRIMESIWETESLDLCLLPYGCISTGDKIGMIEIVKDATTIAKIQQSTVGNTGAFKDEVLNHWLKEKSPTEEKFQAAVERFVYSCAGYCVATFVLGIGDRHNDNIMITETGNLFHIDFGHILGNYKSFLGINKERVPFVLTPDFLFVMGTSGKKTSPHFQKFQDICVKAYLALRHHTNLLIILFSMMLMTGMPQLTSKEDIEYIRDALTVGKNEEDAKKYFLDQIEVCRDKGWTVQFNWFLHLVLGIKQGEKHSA

| Structure (SMILES) | IC50 [1] | IC50 [2] |
| --- | --- | --- |
| Cc1ccc(C(C)(O)C(F)(F)C(F)(F)F)cc1-c1cnc2c(N)nc(C(F)(F)F)cn12 (single isomer, unassigned) [Example 59, 2-(3-(8-Amino-6-(trifluoromethyl)imidazo[1,2-a]pyrazin-3-yl)-4-methylphenyl)-3,3,4,4,4-pentafluorobutan-2-ol] | 0.5 to 2 µM | < 0.1 µM |
| Cc1ccc(C(C)(O)C(F)(F)F)cc1-c1cnc2c(N)nc(C(=O)NCC(C)(C)O)cn12 (single isomer, unassigned) [Example 62, 8-amino-N-(2-hydroxy-2-methylpropyl)-3-(2-methyl-5-(1,1,1-trifluoro-2-hydroxypropan-2-yl)phenyl)imidazo[1,2-a]pyrazine-6-carboxamide] | 0.1 to 0.5 µM | < 0.1 µM |
| Cc1ccc(C(C)(O)C(F)(F)F)cc1-c1cnc2c(N)ncnn12 (centres unmarked) [Example 3, 2-(3-(4-Aminoimidazo[2,1-f][1,2,4]triazin-7-yl)-4-methylphenyl)-1,1,1-trifluoropropan-2-ol] | 0.5 to 2 µM | < 0.1 µM |
| Cc1cn2c(-c3cc(C(C)(O)C(F)(F)F)ccc3C)cnc2c(N)n1 (centres unmarked) [Example 7, 2-(3-(8-Amino-6-methylimidazo[1,2-a]pyrazin-3-yl)-4-methylphenyl)-1,1,1-trifluoropropan-2-ol] | 0.1 to 0.5 µM | < 0.1 µM |
| Cc1ccc(C(O)(CCNC2CCOCC2)C(F)(F)F)cc1-c1cnc2c(N)nc(C(F)(F)F)cn12 (centres unmarked) [Example 17, 2-(3-(8-Amino-6-(trifluoromethyl)imidazo[1,2-a]pyrazin-3-yl)-4-methylphenyl)-1,1,1-trifluoro-4-((tetrahydro-2H-pyran-4-yl)amino)butan-2-ol bis(2,2,2-trifluoroacetate)] | 0.5 to 2 µM | < 0.1 µM |
| Cc1ccc(C(C)(O)C(F)F)cc1-c1cnc2c(N)nc(-c3cncnc3)cn12 (centres unmarked) [Example 32, 2-(3-(8-Amino-6-(pyrimidin-5-yl)imidazo[1,2-a]pyrazin-3-yl)-4-methylpheny1)-1,1-difluoropropan-2-ol] | 0.5 to 2 µM | < 0.1 µM |
| Cc1cc(F)c(C(C)(O)C(F)(F)F)cc1-c1cnc2c(N)nc(C(F)(F)F)cn12 (centres unmarked) [Example 53, 2-(5-(8-Amino-6-(trifluoromethyl)imidazo[1,2-a]pyrazin-3-yl)-2-fluoro-4-methylphenyl)-1,1,1-trifluoropropan-2-ol] | – | < 0.1 µM |
| Cc1cnc(C(C)(O)C(F)(F)F)cc1-c1cnc2c(N)nc(C(F)(F)F)cn12 (centres unmarked) [Example 54, 2-(4-(8-Amino-6-(trifluoromethyl)imidazo[1,2-a]pyrazin-3-yl)-5-methylpyridin-2-yl)-1,1,1-trifluoropropan-2-ol] | – | < 0.1 µM |
| CC(O)(c1cc(-c2cnc3c(N)nc(C(F)(F)F)cn23)ccc1F)C(F)(F)F (centres unmarked) [Example 55, 2-(5-(8-Amino-6-(trifluoromethyl)imidazo[1,2-a]pyrazin-3-yl)-2-fluorophenyl)-1,1,1-trifluoropropan-2-ol] | – | < 0.1 µM |
| CC(O)(c1cccc(-c2cnc3c(N)nc(C(F)(F)F)cn23)c1)C(F)(F)F (centres unmarked) [Example 56, 2-(3-(8-Amino-6-(trifluoromethyl)imidazo[1,2-a]pyrazin-3-yl)phenyl)-1,1,1-trifluoropropan-2-ol] | – | < 0.1 µM |
| CC(O)(c1ccc(F)c(-c2cnc3c(N)nc(C(F)(F)F)cn23)c1)C(F)(F)F (centres unmarked) [Example 57, 2-(3-(8-Amino-6-(trifluoromethyl)imidazo[1,2-a]pyrazin-3-yl)-4-fluorophenyl)-1,1,1-trifluoropropan-2-ol] | – | < 0.1 µM |
| Cc1ncc(C(C)(O)C(F)(F)F)cc1-c1cnc2c(N)nc(C(F)(F)F)cn12 (centres unmarked) [Example 58, 2-(5-(8-Amino-6-(trifluoromethyl)imidazo[1,2-a]pyrazin-3-yl)-6-methylpyridin-3-yl)-1,1,1-trifluoropropan-2-ol] | – | 0.1 to 0.5 µM |
| Cc1ccc(C(C)(O)C(F)F)cc1-c1cnc2c(N)nc(N3CCC(C#N)CC3)cn12 (centres unmarked) [Example 64, 1-(8-Amino-3-(5-(1,1-difluoro-2-hydroxypropan-2-yl)-2-methylphenyl)imidazo[1,2-a]pyrazin-6-yl)piperidine-4-carbonitrile] | 0.5 to 2 µM | < 0.1 µM |

Next, values leading:

| IC50 [1] | IC50 [2] | Structure (SMILES) |
| --- | --- | --- |
| 0.5 to 2 µM | 0.1 to 0.5 µM | CC(O)(c1cc(-c2cnc3c(N)nc(C(F)(F)F)cn23)c2ccn(S(=O)(=O)c3ccccc3)c2c1)C(F)(F)F (racemic) [Example 224, 2-(4-(8-Amino-6-(trifluoromethyl)imidazo[1,2-a]pyrazin-3-yl)-1-(phenylsulfonyl)-1H-indol-6-yl)-1,1,1-trifluoropropan-2-ol] |
| 0.1 to 0.5 µM | < 0.1 µM | [2H]C([2H])([2H])c1ccc(C(O)(C(C)(C)O)C(F)(F)F)cc1-c1cnc2c(N)nc(C(F)(F)F)cn12 (racemic) [Example 235, 2-(3-(8-Amino-6-(trifluoromethyl)imidazo[1,2-a]pyrazin-3-yl)-4-(methyl-d3)phenyl)-1,1,1-trifluoro-3-methylbutane-2,3-diol trifluoroacetate salt] |
| 0.1 to 0.5 µM | < 0.1 µM | [2H]C([2H])([2H])n1nccc1-c1cn2c(-c3cc(C(O)(CO)C(F)(F)F)ccc3C)cnc2c(N)n1 (single isomer, unassigned) [Example 67, 2-(3-(8-Amino-6-(1-(methyl-d3)-1H-pyrazol-5-yl)imidazo[1,2-a]pyrazin-3-yl)-4-methylphenyl)-3,3,3-trifluoropropane-1,2-diol trifluoroacetate salt] |
| 0.5 to 2 µM | 0.5 to 2 µM | CCOC(=O)C1CC1c1cn2c(-c3cc(C(C)(O)C(F)F)ccc3C)cnc2c(N)n1 (single isomer, unassigned) [Example 74, Ethyl 2-(8-amino-3-(5-(1,1-difluoro-2-hydroxypropan-2-yl)-2-methylphenyl)imidazo[1,2-a]pyrazin-6-yl)cyclopropane-1-carboxylate trifluoroacetate salt] |
| 0.5 to 2 µM | < 0.1 µM | Cc1ccc(C(C)(O)C(F)F)cc1-c1cnc2c(N)nc(C3CC3CO)cn12 (single isomer, unassigned) [Example 80, 2-(3-(8-Amino-6-(2-(hydroxymethyl)cyclopropyl)imidazo[1,2-a]pyrazin-3-yl)-4-methylphenyl)-1,1-difluoropropan-2-ol] |
| 0.1 to 0.5 µM | < 0.1 µM | Cc1ccc(C(C)(O)C(F)(F)F)cc1-c1cnc2c(N)nc(N3CCC(O)CC3)cn12 (centres unmarked) [Example 65, 1-(8-Amino-3-(2-methyl-5-(1,1,1-trifluoro-2-hydroxypropan-2-yl)phenyl)imidazo[1,2-a]pyrazin-6-yl)piperidin-4-ol] |
| 0.1 to 0.5 µM | < 0.1 µM | Cc1ccc(C(C)(O)C(F)F)cc1-c1cnc2c(N)nc(C3CC3C(=O)N3CCN(C)CC3)cn12 (centres unmarked) [Example 77, (2-(8-Amino-3-(5-(1,1-difluoro-2-hydroxypropan-2-yl)-2-methylphenyl)imidazo[1,2-a]pyrazin-6-yl)cyclopropyl)(4-methylpiperazin-1-yl)methanone trifluoroacetate salt] |
| 0.5 to 2 µM | 0.1 to 0.5 µM | Cc1ccc(C(C)(O)C(F)(F)F)cc1-c1cnc2c(N)nc(CC(=O)N(C)C)cn12 (centres unmarked) [Example 169, 2-(8-amino-3-(2-methyl-5-(1,1,1-trifluoro-2-hydroxypropan-2-yl)phenyl)imidazo[1,2-a]pyrazin-6-yl)-N,N-dimethylacetamide trifluoroacetate salt] |
| 0.5 to 2 µM | 0.1 to 0.5 µM | Cc1ccc(C(C)(O)C(F)(F)F)cc1-c1cnc2c(N)nc(CC(=O)N3CCOCC3)cn12 (centres unmarked) [Example 173, 2-(8-amino-3-(2-methyl-5-(1,1,1-trifluoro-2-hydroxypropan-2-yl)phenyl)imidazo[1,2-a]pyrazin-6-yl)-1-morpholinoethanone trifluoroacetate salt] |
